For 65 compounds, IC50 results are on record in patent US11154544B2, “Amide derivatives as Nav1.7 and Nav1.8 blockers” (RaQualia Pharma Inc., priority 2017, dated 2021).

The structures appear in SMILES notation.

Chain of Nav1.7 (Q15858 whole entry): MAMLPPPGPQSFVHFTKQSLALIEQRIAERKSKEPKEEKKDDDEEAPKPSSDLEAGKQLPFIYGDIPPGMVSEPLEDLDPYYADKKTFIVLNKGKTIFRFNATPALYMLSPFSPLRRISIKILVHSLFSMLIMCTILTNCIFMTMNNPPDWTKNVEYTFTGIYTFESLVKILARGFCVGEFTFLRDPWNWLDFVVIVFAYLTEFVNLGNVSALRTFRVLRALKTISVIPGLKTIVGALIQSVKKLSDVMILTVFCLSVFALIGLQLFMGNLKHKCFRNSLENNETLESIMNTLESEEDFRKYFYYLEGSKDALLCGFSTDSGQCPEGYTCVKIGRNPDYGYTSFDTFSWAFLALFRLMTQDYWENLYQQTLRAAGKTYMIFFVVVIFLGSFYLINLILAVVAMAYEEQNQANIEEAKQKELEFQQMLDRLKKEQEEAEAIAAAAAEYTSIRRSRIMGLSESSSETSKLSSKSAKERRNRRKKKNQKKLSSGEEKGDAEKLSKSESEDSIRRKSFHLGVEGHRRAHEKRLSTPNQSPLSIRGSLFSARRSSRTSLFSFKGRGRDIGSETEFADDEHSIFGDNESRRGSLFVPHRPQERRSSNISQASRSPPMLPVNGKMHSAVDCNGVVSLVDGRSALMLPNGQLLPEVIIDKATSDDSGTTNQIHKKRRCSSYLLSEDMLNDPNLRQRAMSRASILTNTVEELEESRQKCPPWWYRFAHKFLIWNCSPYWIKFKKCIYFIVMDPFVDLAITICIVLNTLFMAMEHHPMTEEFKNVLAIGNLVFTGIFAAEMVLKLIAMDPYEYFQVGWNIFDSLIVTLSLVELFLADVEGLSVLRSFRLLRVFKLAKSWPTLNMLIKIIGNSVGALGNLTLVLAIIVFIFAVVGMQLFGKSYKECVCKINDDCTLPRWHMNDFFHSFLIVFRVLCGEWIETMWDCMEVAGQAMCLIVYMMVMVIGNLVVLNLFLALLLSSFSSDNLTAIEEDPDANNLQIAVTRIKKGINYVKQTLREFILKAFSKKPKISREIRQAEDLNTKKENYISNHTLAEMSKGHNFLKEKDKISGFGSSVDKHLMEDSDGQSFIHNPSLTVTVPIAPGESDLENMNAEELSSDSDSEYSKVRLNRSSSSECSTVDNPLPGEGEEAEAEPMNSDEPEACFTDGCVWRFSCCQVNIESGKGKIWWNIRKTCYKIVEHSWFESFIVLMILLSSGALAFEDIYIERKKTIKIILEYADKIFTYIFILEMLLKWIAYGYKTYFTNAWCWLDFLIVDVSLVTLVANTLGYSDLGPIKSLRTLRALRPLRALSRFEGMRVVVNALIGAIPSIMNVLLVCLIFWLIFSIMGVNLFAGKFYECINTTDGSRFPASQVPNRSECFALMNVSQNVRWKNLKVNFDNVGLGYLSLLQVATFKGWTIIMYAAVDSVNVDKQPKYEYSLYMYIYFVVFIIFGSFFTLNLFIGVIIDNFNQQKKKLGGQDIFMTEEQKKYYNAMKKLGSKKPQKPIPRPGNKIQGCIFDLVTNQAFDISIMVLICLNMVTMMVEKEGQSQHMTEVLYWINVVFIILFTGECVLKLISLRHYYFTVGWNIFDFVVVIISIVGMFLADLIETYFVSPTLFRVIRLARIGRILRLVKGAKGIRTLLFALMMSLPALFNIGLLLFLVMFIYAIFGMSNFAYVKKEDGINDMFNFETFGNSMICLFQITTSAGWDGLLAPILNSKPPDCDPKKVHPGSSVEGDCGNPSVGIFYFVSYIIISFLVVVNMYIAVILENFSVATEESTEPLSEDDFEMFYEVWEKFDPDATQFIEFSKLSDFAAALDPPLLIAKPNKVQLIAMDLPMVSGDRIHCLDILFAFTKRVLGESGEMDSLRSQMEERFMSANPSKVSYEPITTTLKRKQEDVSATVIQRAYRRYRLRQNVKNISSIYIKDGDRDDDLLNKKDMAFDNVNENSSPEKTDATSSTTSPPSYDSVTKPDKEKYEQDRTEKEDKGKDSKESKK

The first experiment addresses Nav1.7 (Homo sapiens (Human), UniProt Q15858). Nature of the experiment: EFS-FRET assay. The format is cell-based. The settings on record: EFS-FRET, CHO cells expressing human Nav1.7; read-out: IC50 against Nav1.7. The method, then:
This screen is used to determine the effects of compounds on human Nav1.7 channels, utilizing electrical field stimulation (EFS) system in 96-well plate format on FDSS (Hamamatsu Photonics) platform. The change of membrane potential is monitored with FRET dye pair, DiSBAC2(3) and PTS 18.
CHO (Chinese hamster ovary) cells expressing human Nav1.7 channels are grown in T225 flasks, in a 5% CO2 humidified incubator to about 80% confluence. Media composition consists of HAM/F^.12 with Glutamax I, 10% FCS, 100 units/mL penicillin and 100 microgram/mL hygromycin.
Seed each cell lines (1×10^5 cells/well) into 96-well plates prior to experimentation.
Incubate at 37° C. in 5% CO2, for 24 hours.
Wash each well with assay buffer (140 mM NaCl, […], 10 mM D-Glucose, 2 mM CaCl2, 1 mM MgCl2, 10 mM HEPES, pH 7.4 adjusted with NaOH) twice.
Add 1st loading solution containing 10 microM PTS18 and 0.06% Pluronic F-127 in assay buffer.
Incubate the plate at rt in dark for 1 hour. • Remove 1st loading solution and add 2nd loading solution containing 12.5 microM DiSBAC2(3), 1.25 mM Xylene Fast Yellow and 0.0075% Pluronic F-127 in assay buffer. • Place the plate under the dark at rt for 25 minutes. • Add compound solutions into the assay plate. • Set the assay plate in FDSS and place an EFS device on the plate. • Measure EFS-induced fluorescent response by FDSS.
The data are analyzed and reported as normalized ratios of intensities measured at […]. The process of calculating these ratios is performed as follows:
This analysis is performed using a computerized specific program designed for
FDSS generated data. Fluorescence ratio values are plotted using XLfit to determine an IC50 value for each, compound.
Broadly, the IC50 is the concentration that gives 50% inhibition. Take `CC(C)C(=O)Nc1cc(C(=O)NCCOc2ccc(C(F)(F)F)cc2Cl)ccn1` [Example 22]: the IC50 is < 0.5 µM.
As to `CC(C)C(=O)Nc1cc(C(=O)NCCOc2ccc3cc(C(F)(F)F)ccc3n2)ccn1` [Example 46], the IC50 was < 0.5 µM.
Take `Cc1cc(C(=O)NCCOc2ccc(C(F)(F)F)cc2Cl)cc(NC(=O)C(C)C)n1` [Example 42]: the IC50 is < 0.5 µM.
Same read-out and setting: then `Cc1cc(C(=O)NCCOc2ccc3cc(C(F)(F)F)ccc3n2)cc(NC(=O)C2CC2)n1` [Example 59], with < 0.5 µM; and `Cc1cc(C(=O)NCCOc2ccc3cc(C(F)(F)F)ccc3n2)cc(NC(=O)C(C)C)n1` [Example 60], with < 0.5 µM.
In the case of `CCC(=O)Nc1cc(C(=O)NCCOc2ccc(OC(F)(F)F)cc2Cl)cc(C)n1` [Example 105], the IC50 is < 0.5 µM.
For the compound `CCC(=O)Nc1cc(C(=O)NCCOc2ccc(C(F)(F)F)cn2)cc(C)n1` [Example 12], the IC50 was < 0.5 µM.
For `CCC(=O)Nc1cc(C(=O)NCCOc2ncc(C(F)(F)F)cc2Cl)ccn1` [Example 9], the IC50 was < 0.5 µM.
As for `CC(C)C(=O)Nc1cc(C(=O)NCCNc2ncc(C(F)(F)F)cc2Cl)ccn1` [Example 7], the IC50 is < 0.5 µM.
As to `O=C(NCCOc1ccc(OC(F)(F)F)c(F)c1)c1ccnc(NC(=O)C2CC2)c1` [Example 151], the half-maximal inhibitory concentration (IC50) is < 0.5 µM.
Same read-out and setting: then `COc1cc(C(F)(F)F)ccc1OCCNC(=O)c1cc(C)nc(NC(=O)C(C)C)c1` [Example 133], with < 0.5 µM; and `Cc1cc(C(=O)NCCOc2ccc(OC(F)(F)F)cc2Cl)cc(NC(=O)C2CC2)n1` [Example 115], with < 0.5 µM.
As to `CCC(=O)Nc1cc(C(=O)NCCOc2ccc(C(F)(F)F)cc2C)ccn1` [Example 139], the IC50 was < 0.5 µM.
The same measure, in the same setting: under `CC(=O)Nc1cc(C(=O)NCCOc2ccc3cc(C(F)(F)F)ccc3n2)ccn1` [Example 56] stands < 0.5 µM; under `Cc1cc(C(=O)NCCOc2ccc(C(F)(F)F)cc2Cl)cc(NC(=O)C2CC2)n1` [Example 41], < 0.5 µM; under `CCC(=O)Nc1cc(C(=O)NCCOc2ccc3cc(C(F)(F)F)ccc3n2)cc(C)n1` [Example 44], < 0.5 µM.
The same measure, in the same setting: then `O=C(NCCOc1ccc(C(F)(F)F)cc1Cl)c1ccnc(NC(=O)C2CC2)c1` [Example 40], with < 0.5 µM; and `CCC(=O)Nc1cc(C(=O)NCCOc2ccc(C(F)(F)F)cc2Cl)ccn1` [Example 21], with < 0.5 µM.
Regarding `CC(=O)Nc1cc(C(=O)NCCOc2cccc(OC(F)(F)F)c2)cc(C)n1` [Example 19], the IC50 is < 0.5 µM.
As to `Cc1cc(C(=O)N[C@H](C)COc2ncc(C(F)(F)F)cc2Cl)cc(NC(=O)C(C)C)n1` [Example 70], the IC50 was < 0.5 µM.
In the case of `Cc1cc(C(=O)NCCNc2ncc(C(F)(F)F)cc2Cl)cc(NC(=O)C2CC2)n1` [Example 26], the IC50 was < 0.5 µM.
As to `Cc1cc(C(=O)N[C@H](C)COc2ncc(C(F)(F)F)cc2Cl)cc(NC(=O)C2CC2)n1` [Example 69], the IC50 was < 0.5 µM.
For `O=C(NCCOc1ccc(OC(F)(F)F)cc1Cl)c1ccnc(NC(=O)C2CC2)c1` [Example 117], the half-maximal inhibitory concentration (IC50) is < 0.5 µM.
On the same count and under the same terms, then `CCC(=O)Nc1cc(C(=O)NCCOc2ncc(C(F)(F)F)cc2Cl)cc(C)n1` [Example 15], with < 0.5 µM.
Same read-out and setting: under `Cc1cc(C(F)(F)F)ccc1OCCNC(=O)c1ccnc(NC(=O)C(C)C)c1` [Example 143] stands < 0.5 µM.
On the same count and under the same terms, then `CCC(=O)Nc1cc(C(=O)N[C@H](C)COc2ncc(C(F)(F)F)cc2Cl)ccn1` [Example 64], with < 0.5 µM; and `CC(=O)Nc1cc(C(=O)NCCOc2ccc(OC(F)(F)F)c(F)c2)cc(C)n1` [Example 152], with < 0.5 µM.
Turning to `Cc1cc(C(=O)NC[C@@H](C)Oc2ncc(C(F)(F)F)cc2Cl)cc(NC(=O)C2CC2)n1` [Example 76], the IC50 was < 0.5 µM.
As to `CCC(=O)Nc1cc(C(=O)NCCOc2ccc(OC(F)(F)F)c(F)c2)ccn1` [Example 148], the IC50 is < 0.5 µM.
As for `CC(=O)Nc1cc(C(=O)NCCOc2ccc(C(F)(F)F)cc2F)cc(C)n1` [Example 93], the IC50 is < 0.5 µM.
`Cc1cc(C(=O)NC[C@@H](C)Oc2ncc(C(F)(F)F)cc2Cl)cc(NC(=O)C(C)C)n1` [Example 77]: the IC50 was < 0.5 µM.
Regarding `CC(C)C(=O)Nc1cc(C(=O)N[C@H](C)COc2ncc(C(F)(F)F)cc2Cl)ccn1` [Example 68], the IC50 was < 0.5 µM.
The same measure, in the same setting: then `O=C(NCCOc1ncc(C(F)(F)F)cc1Cl)c1cccnc1C(F)(F)F` [No. 1-63, reference compound], with > 3 µM; and `C[C@H](COc1ncc(C(F)(F)F)cc1Cl)NC(=O)c1ccnc(NC(=O)C2CC2)n1` [Example 71], with < 0.5 µM; and `COc1cc(C(F)(F)F)ccc1OCCNC(=O)c1ccnc(NC(=O)C(C)C)c1` [Example 131], with < 0.5 µM.
As for `COc1cc(C(F)(F)F)ccc1OCCNC(=O)c1ccnc(NC(=O)C2CC2)c1` [Example 130], the IC50 is < 0.5 µM.
Regarding `O=C(NCCOc1ncc(C(F)(F)F)cc1Cl)c1ncccc1Cl` [No. 1-3, reference compound], the IC50 was > 3 µM.
For the compound `CC(=O)Nc1cc(C(=O)NCCOc2ccc(S(F)(F)(F)(F)F)cc2)cc(C)n1` [Example 31], the IC50 is < 0.5 µM.
On the same count and under the same terms, under `CC(C)C(=O)Nc1cc(C(=O)NCCOc2ccc(S(F)(F)(F)(F)F)cc2)ccn1` [Example 34] stands < 0.5 µM; under `O=C(NCCOc1ccc(C(F)(F)F)cc1Cl)c1ccnc(NC(=O)C2CC2)n1` [Example 43], < 0.5 µM; under `CCC(=O)Nc1cc(C(=O)NCCOc2ccc(C(F)(F)F)cc2OC)cc(C)n1` [Example 129], < 0.5 µM.
On the same count and under the same terms, under `COc1cc(C(F)(F)F)ccc1OCCNC(=O)c1cc(C)nc(NC(C)=O)c1` [Example 128] stands < 0.5 µM; under `CCCC(=O)Nc1cc(C(=O)NCCOc2ncc(C(F)(F)F)cc2Cl)ccn1` [Example 87], < 0.5 µM; under `Cc1cc(C(=O)NCCOc2ncc(C(F)(F)F)cc2Cl)nc(NC(=O)C(C)C)n1` [Example 90], < 0.5 µM.
Regarding `CCC(=O)Nc1cc(C(=O)NCCOc2ccc(S(F)(F)(F)(F)F)cc2)ccn1` [Example 32], the IC50 is < 0.5 µM.
On to `COc1cc(C(F)(F)F)ccc1OCCNC(=O)c1cc(C)nc(NC(=O)C2CC2)c1` [Example 132], for which the IC50 was < 0.5 µM.
On the same count and under the same terms, under `O=C(NCCOc1ccc(OC(F)(F)F)cc1Cl)C1C=C(NC(=O)C2CC2)N=CC1` (stereo not shown) [Example 106] stands < 0.5 µM; under `CC(=O)Nc1cc(C(=O)N[C@H](C)COc2ncc(C(F)(F)F)cc2Cl)cc(C)n1` [Example 65], < 0.5 µM.
Still for that read-out and setting: then `CCC(=O)Nc1cc(C(=O)NCCNc2ncc(C(F)(F)F)cc2Cl)cc(C)n1` [Example 5], with < 0.5 µM.
For the compound `O=C(NCCOc1ccc2cc(C(F)(F)F)ccc2n1)c1ccnc(NC(=O)C2CC2)c1` [Example 45], the IC50 was < 0.5 µM.
Consider `CCC(=O)Nc1cc(C(=O)NCCCNc2ncc(C(F)(F)F)cc2Cl)ccn1` [Example 119], for which the IC50 is < 0.5 µM.
As to `CCC(=O)Nc1cc(C(=O)NCCOc2ccc3cc(OCC(F)(F)F)ccc3c2)cc(C)n1` [Example 49], the IC50 was < 0.5 µM.
For `CC(=O)Nc1cc(C(=O)NCCOc2ncc(C(F)(F)F)cc2Cl)cc(C)n1` [Example 10], the IC50 is < 0.5 µM.
In the case of `CCC(=O)Nc1cc(C(=O)NCCOc2ccc3cc(C(F)(F)F)ccc3n2)ccn1` [Example 57], the IC50 is < 0.5 µM.
For `CC(=O)Nc1cc(C(=O)NCCOc2ccc3cc(C(F)(F)F)ccc3n2)cc(C)n1` [Example 58], the IC50 is < 0.5 µM.
As for `CC(C)C(=O)Nc1cc(C(=O)NCCCOc2ncc(C(F)(F)F)cc2Cl)ccn1` [Example 123], the IC50 was < 0.5 µM.
As to `CC(C)C(=O)Nc1cc(C(=O)NCCOc2ccc(OC(F)(F)F)c(F)c2)ccn1` [Example 149], the IC50 was < 0.5 µM.
The same measure, in the same setting: under `CC(=O)Nc1cc(C(=O)NCCOc2ccc(OC(F)(F)F)c(F)c2)ccn1` [Example 154] stands < 0.5 µM; under `Cc1cc(C(=O)NCCNc2ncc(C(F)(F)F)cc2Cl)cc(NC(=O)C(C)C)n1` [Example 37], < 0.5 µM; under `CC(=O)Nc1cc(C(=O)NC[C@@H](C)Oc2ncc(C(F)(F)F)cc2Cl)cc(C)n1` [Example 73], < 0.5 µM.
With `CCC(=O)Nc1nc(C)cc(C(=O)NCCOc2ncc(C(F)(F)F)cc2Cl)n1` [Example 89], the IC50 is < 0.5 µM.
With `CC(=O)Nc1cc(C(=O)NCCOc2ccc(C(F)(F)F)cc2C)ccn1` [Example 138], the IC50 was < 0.5 µM.
On to `CC(=O)Nc1cc(C(=O)NCCOc2ccc(OC(F)(F)F)cc2Cl)cc(C)n1` [Example 116], for which the IC50 was < 0.5 µM.
As to `CC(=O)Nc1cc(C(=O)NCCNc2ncc(C(F)(F)F)cc2Cl)ccn1` [Example 2], the IC50 is < 0.5 µM.
With `CCC(=O)Nc1cc(C(=O)NCCOc2ccc(OC(F)(F)F)cc2Cl)ccn1` [Example 114], the IC50 is < 0.5 µM.

The experiment is the same for the next values; noted with them: Table 1; read-out: Nav1.7 activity (IC50).
Consider `O=C(NCCOc1ncc(C(F)(F)F)cc1Cl)c1cccnc1C(F)(F)F` [No. 1-63, reference compound], for which the IC50 is > 3 µM.
In the case of `O=C(NCCOc1ncc(C(F)(F)F)cc1Cl)c1ncccc1Cl` [No. 1-3, reference compound], the IC50 was > 3 µM.
